The nature of data set [1]: Identification of metabolite in human plasma samples by LC/MS/MS and LC/NMR. The settings on record: human plasma after intravenous administration of 5-cyclopropyl-1-(quinolin-5-yl)-1H-pyrazole-4-carbonyl]guanidine. It is filed as in vivo. The source says: It was identified from samples of human plasma obtained after intravenous administration of 5-cyclopropyl-1-(quinolin-5-yl)-1H-pyrazole-4-carbonyl]guanidine to human subjects. The structure of this compound was independently verified by chemical synthesis. In another aspect of this invention [5-cyclopropyl-1-(2-quinolon-5-yl)-1H-pyrazole-4-carbonyl]guanidine may be prepared by administering [5-cyclopropyl-1-(quinolin-5-yl)-1H-pyrazole-4-carbonyl]guanidine to a human and isolating the desired metabolite from the plasma. Alternatively, the metabolite need not be isolated from the human since it is produced in vivo. […]
An aliquot (100 μL or 50 μL) of the concentrated sample was injected onto an LC/MS/MS instrument equipped with a Zorbax Rx-C8 4.6×150 mm column, analyzed on PE Sciex API 2000 or Finnigan LCQ mass spectrometer and monitored by UV detector at 254 nm. […] Under these LC conditions a metabolite was detected at a retention time of 11.8 minutes ([5-cyclopropyl-1-(quinolin-5-yl)-1H-pyrazole-4-carbonyl]guanidine was detected at 13.7 minutes).
The salts were removed from the above concentrated sample by solid phase extraction. […] 50 μL of this sample was injected onto an LC/NMR instrument equipped with a Zorbax Rx-C8 4.6×150 mm column, analyzed on a Bruker 500 MHz NMR spectrometer and monitored by UV detector at 235 nm. […]

The target of another data set is human NHE-1 (Homo sapiens, UniProt P19634). Nature of the data set: Measurement of human NHE-1 inhibitory activity (NHE-mediated recovery of intracellular pH, BCECF fluorescence).

Each structure is given as a SMILES string.

Sequence of human NHE-1 (P19634 whole entry): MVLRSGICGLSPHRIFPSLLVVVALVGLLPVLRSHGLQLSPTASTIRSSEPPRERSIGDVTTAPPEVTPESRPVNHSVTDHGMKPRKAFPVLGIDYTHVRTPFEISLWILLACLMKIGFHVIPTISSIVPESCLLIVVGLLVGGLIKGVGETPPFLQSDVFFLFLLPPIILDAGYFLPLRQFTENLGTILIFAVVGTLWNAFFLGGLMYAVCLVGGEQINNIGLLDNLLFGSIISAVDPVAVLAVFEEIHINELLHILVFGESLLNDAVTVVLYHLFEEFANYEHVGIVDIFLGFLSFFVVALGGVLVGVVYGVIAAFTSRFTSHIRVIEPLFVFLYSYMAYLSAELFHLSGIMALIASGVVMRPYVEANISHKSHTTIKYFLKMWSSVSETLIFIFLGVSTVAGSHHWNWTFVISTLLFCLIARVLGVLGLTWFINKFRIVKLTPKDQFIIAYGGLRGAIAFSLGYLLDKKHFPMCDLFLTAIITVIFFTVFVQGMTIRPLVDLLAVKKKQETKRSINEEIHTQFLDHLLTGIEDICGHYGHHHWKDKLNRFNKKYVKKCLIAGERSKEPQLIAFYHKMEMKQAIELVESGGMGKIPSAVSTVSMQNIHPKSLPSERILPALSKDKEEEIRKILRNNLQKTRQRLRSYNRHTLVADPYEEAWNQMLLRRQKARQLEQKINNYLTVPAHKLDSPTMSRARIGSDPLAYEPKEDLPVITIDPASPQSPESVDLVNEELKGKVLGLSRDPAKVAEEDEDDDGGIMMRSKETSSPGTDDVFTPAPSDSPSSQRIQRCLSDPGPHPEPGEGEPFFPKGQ
Experimental for human NHE-1: Methodologies for measurement of human NHE-1 activity and inhibitor potency are based on those published by Watson et al., Am. J. Physiol., 24:G229-G238, 1991), where NHE-mediated recovery of intracellular pH is measured following intracellular acidification. Thus, fibroblasts stably expressing human NHE-1 (Counillon, L. et al., Mol. Pharmacol., 44:1041-1045 (1993) are plated onto collagen coated 96 well plates (50,000/well) and grown to confluence in growth media (DMEM high glucose, 10% fetal bovine serum, 50 u/ml penicillin and streptomycin). Confluent plates are incubated for 30 min at 37° C. with the pH sensitive fluorescent probe BCECF (5 μM; Molecular Probes, Eugene, Oreg.). BCECF loaded cells are incubated for 30 min at 37° C. in acid loading media (70 mM choline chloride, 50 mM NHCl4, 5 mM KCl, 1 mM MgCl2, 1.8 mM CaCl2, 5 mM glucose, 10 mM HEPES, pH 7.5), and then placed in a Fluorescent Imaging Plate Reader (Molecular Devices, CA). BCECF fluorescence is monitored using excitation and emission wavelengths of 485 nm and 525 nM, respectively. Intracellular acidification is initiated via rapid replacement of acid loading media with recovery media (120 mM NaCl, 5 mM KCl, 1 mM MgCl2, 1.8 mM CaCl2, 5 mM glucose, 10 mM HEPES, pH 7.5)±test compound, and NHE-mediated recovery of intracellular pH is monitored as the subsequent time-dependent increase BCECF fluorescence.

For orientation: IC50 means the point on the concentration scale where inhibition reaches its midpoint. Low readings indicate greater potency in that assay, high ones weaker potency in that assay. In the case of `N=C(N)NC(=O)c1cnn(-c2cccc3[nH]c(=O)ccc23)c1C1CC1` [Formula I, [5-cyclopropyl-1-(2-quinolon-5-yl)-1H-pyrazole-4-carbonyl]guanidine], the “metabolite identification in human plasma” value in data set [1] is “human metabolite”. Moreover, half-maximal inhibition against human NHE-1 (IC50) was put at 200 nM.

The record behind these values is US6852733B2, “Sodium-hydrogen exchanger type 1 inhibitor” (Pfizer Inc., priority 2000, dated 2005).
